Consider seven molecules from patent US11737977B2, “Cerasome delivery system for targeting activated CD44 molecule, preparation method and use thereof” (Beijing Inno Medicine Co., Ltd., priority 2017, dated 2023).

For data set [1], the system named is arterial vulnerable plaques. Nature of the data set: In vivo CT tracing of arterial vulnerable plaques, iodixanol. Further details: species or system mice. Conditions: iodixanol 0.66 mg/kg, tail vein, CT 72 hours after administration; FIG. 16. How it is done: (1) A commercially available iodixanol bulk drug was used, and the cerasome delivery system HA-CL1@I loaded with a CT tracer, the cerasome delivery system HA-CL1@I+S loaded with a tracer and a CD44 activator, and the non-targeting cerasome delivery system CL1@I loaded with a tracer (as a comparative example) were prepared by the method described in the above Example 2.
(2) A mouse model of atherosclerotic vulnerable plaque was constructed according to the method described in Example 6 above.
(3) The model mice were fed with a high-fat diet (same as in Example 6) for 16 weeks. 30 model mice were randomly divided into the blank group (6 mice), the iodixanol group (6 mice, given the commercially available iodixanol bulk drug, and the dosage of iodixanol was 0.66 mg/kg body weight), the CL1@I group (6 mice, given CL1@I, and the dosage of iodixanol was 0.66 mg/kg body weight), the HA-CL1@I group (6 mice, given HA-CL1@I, and the dosage of iodixanol was 0.66 mg/kg body weight), and HA-CL1@I+S group (6 mice, given HA-CL1@I+S, the dosage of iodixanol was 0.66 mg/kg body weight, and the dosage of CD44 activator-LPS was about 0.023 mg/kg body weight). […]

For data set [2] the following is noted: oral, clinical practice; cited from earlier work.
Data set [3] deals with arterial vulnerable plaques. Put plainly: In vivo therapeutic effect on arterial vulnerable plaques (carotid MRI, percentage of plaque progression). Also on record: species or system ApoE−/− mice. As to conditions: 5 mg rosuvastatin per kg, once every other day, 5 treatments; FIG. 14.
Data set [4] deals with T1, CD44 on the surface of macrophages inside arterial vulnerable plaques (Mus musculus, UniProt P15379).
T1 construct: from tissue; host or cells: macrophages from inside arterial vulnerable plaques of atherosclerosis model mice
T1 sequence (P15379 23-778): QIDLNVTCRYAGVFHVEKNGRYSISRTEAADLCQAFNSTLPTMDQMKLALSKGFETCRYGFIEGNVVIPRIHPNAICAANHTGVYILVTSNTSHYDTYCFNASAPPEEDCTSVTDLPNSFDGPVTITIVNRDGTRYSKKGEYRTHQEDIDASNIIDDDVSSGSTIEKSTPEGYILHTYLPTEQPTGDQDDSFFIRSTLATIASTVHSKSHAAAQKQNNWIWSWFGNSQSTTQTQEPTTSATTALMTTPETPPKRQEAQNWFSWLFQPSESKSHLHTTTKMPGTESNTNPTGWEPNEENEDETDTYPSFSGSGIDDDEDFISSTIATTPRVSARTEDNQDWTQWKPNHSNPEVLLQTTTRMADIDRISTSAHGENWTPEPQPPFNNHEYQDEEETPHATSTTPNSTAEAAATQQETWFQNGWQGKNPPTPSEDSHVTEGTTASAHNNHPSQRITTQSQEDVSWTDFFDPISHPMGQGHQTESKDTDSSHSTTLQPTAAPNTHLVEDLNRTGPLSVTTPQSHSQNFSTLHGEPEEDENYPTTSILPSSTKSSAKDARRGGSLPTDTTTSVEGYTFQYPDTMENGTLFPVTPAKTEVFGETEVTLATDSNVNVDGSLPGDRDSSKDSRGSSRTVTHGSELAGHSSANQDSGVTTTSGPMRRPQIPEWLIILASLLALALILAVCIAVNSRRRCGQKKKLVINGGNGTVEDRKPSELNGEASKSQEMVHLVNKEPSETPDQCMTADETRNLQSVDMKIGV
Nature of the data set: Binding force integration of FL-ligand/antibody on macrophages (flow cytometry MFI). As to conditions: aminofluorescein-labeled ligand/antibody 10 mg/ml, 30 minutes, 37° C. Further details: species or system mice. As for the experimental part:
Intraperitoneal macrophages and macrophages inside arterial vulnerable plaques of model mice were taken, and hyaluronic acid labeled with aminofluorescein at a concentration of 10 mg/ml (represented by “FL-HA”) was added, the sample was cultured in DMEM (containing calf serum with a volume fraction of 10%, 100 U/ml penicillin, 100 U/ml streptomycin) at 37° C., in 5% CO2 incubator.
Intraperitoneal macrophages and macrophages inside arterial vulnerable plaques of model mice were taken, and the ligand/antibody labeled with aminofluorescein at a concentration of 10 mg/ml was added, the sample was cultured in DMEM (containing calf serum with a volume fraction of 10%, 100 U/ml penicillin, 100 U/ml streptomycin) at 37° C., in 5% CO2 incubator.

Data set [5] deals with T2, CD44 on the surface of endothelial cells at arterial vulnerable plaques (Mus musculus, UniProt P15379).
T2 construct: from tissue; host or cells: endothelial cells from arterial vulnerable plaques of atherosclerosis model mice
T2 sequence (P15379 23-778): T1 sequence (P15379 23-778)
Put plainly: Binding force integration of FL-ligand/antibody on endothelial cells (flow cytometry MFI). Further details: species or system mice. As to conditions: aminofluorescein-labeled ligand/antibody 10 mg/ml, 30 minutes, 37° C. How it is done: Endothelial cells at normal arterial vessel walls and endothelial cells at arterial vulnerable plaques of model mice were taken, and hyaluronic acid labeled with aminofluorescein at a concentration of 10 mg/ml (represented by “FL-HA”) was added, and the sample was cultured in Dulberic modified Eagle's medium (DMEM) (containing calf serum with a volume fraction of 10%, 100 U/ml penicillin, 100 U/ml streptomycin) at 37° C., in 5% CO2 incubator. After 30 minutes, the mean fluorescence intensity (MFI) was determined by flow cytometry (CytoFLEX, Beckman Coulter, U.S.A.), and the binding force integration of FL-HA on the surface of both cells was calculated (the binding force of endothelial cells of normal arterial vessel walls is set to 1).
Endothelial cells at normal arterial vessel walls and endothelial cells at arterial vulnerable plaques of model mice were taken, and the ligand/antibody labeled with aminofluorescein at a concentration of 10 mg/ml was added, the sample was cultured in Dulberic modified Eagle's medium (DMEM) (containing calf serum with a volume fraction of 10%, 100 U/ml penicillin, 100 U/ml streptomycin) at 37° C., in 5% CO2 incubator. After 30 minutes, the mean fluorescence intensity (MFI) was determined by flow cytometry (CytoFLEX, Beckman Coulter, U.S.A.), and the binding force integration of FL-ligand/antibody on the surface of both cells was calculated (the binding force of CD44 of endothelial cells of normal arterial vessel walls to ligand/antibody is set to 1).

`CC(=O)N(CC(O)CN(C(C)=O)c1c(I)c(C(=O)NCC(O)CO)c(I)c(C(=O)NCC(O)CO)c1I)c1c(I)c(C(=O)NCC(O)CO)c(I)c(C(=O)NCC(O)CO)c1I` (stereo not shown) [iodixanol]: in data set [1], the “tracing effect on arterial vulnerable plaques (CT)” value is reported as “does not show any tracing effect”.
With `CC(C)c1nc(N(C)S(C)(=O)=O)nc(-c2ccc(F)cc2)c1/C=C/[C@@H](O)C[C@@H](O)CC(=O)O` [rosuvastatin], the “bioavailability when administered orally” value in data set [2] was “about 20%”. In addition, the “therapeutic effect on arterial vulnerable plaques (percentage of plaque progression)” value in data set [3] was “shows a certain therapeutic effect, but it could not prevent the continued growth of vulnerable plaques”.
For collagen, in data set [4], the “binding force integration, macrophages inside vulnerable plaques versus macrophages outside the plaque (set to 1)” value is given as 38 times. Moreover, the “binding force integration, endothelial cells at vulnerable plaques versus endothelial cells of normal arterial vessel walls (set to 1)” value in data set [5] was 21 times.
As to fibronectin, the “binding force integration, macrophages inside vulnerable plaques versus macrophages outside the plaque (set to 1)” value in data set [4] is recorded as 35 times. Besides, the “binding force integration, endothelial cells at vulnerable plaques versus endothelial cells of normal arterial vessel walls (set to 1)” value in data set [5] came out at 18 times.
As to “hyaluronic acid [HA, reference compound]”, the “binding force integration, macrophages inside vulnerable plaques versus macrophages outside the plaque (set to 1)” value in data set [4] is on record as “approximately 40 times”. The “binding force integration, endothelial cells at vulnerable plaques versus endothelial cells of normal arterial vessel walls (set to 1)” value in data set [5] is “approximately 24 times”.
Turning to laminin, the “binding force integration, macrophages inside vulnerable plaques versus macrophages outside the plaque (set to 1)” value in data set [4] turned out to be 37 times. Besides, the “binding force integration, endothelial cells at vulnerable plaques versus endothelial cells of normal arterial vessel walls (set to 1)” value in data set [5] amounted to 16 times.
On the same counts, the results for osteopontin: natural ligand for CD44 are 33 times and 17 times.
